Data from patent US20170189504A1, “NOVEL PEPTIDES AND COMBINATION OF PEPTIDES FOR USE IN IMMUNOTHERAPY AGAINST VARIOUS CANCERS” (immatics biotechnologies GmbH, priority 2015, published 2017).

These substances were tested on HLA-A*02 (assay: MHC binding assay, UV-ligand exchange with β2m ELISA, HLA-A*02 (Table 20)). Conditions: binding to HLA-A*02 ranged by peptide exchange yield (UV-ligand exchange, β2m ELISA).
Parameters: species or system human
From the text: Candidate peptides for T cell based therapies according to the present invention were further tested for their MHC binding capacity (affinity). The individual peptide-MHC complexes were produced by UV-ligand exchange, where a UV-sensitive peptide is cleaved upon UV-irradiation, and exchanged with the peptide of interest as analyzed. Only peptide candidates that can effectively bind and stabilize the peptide-receptive MHC molecules prevent dissociation of the MHC complexes. To determine the yield of the exchange reaction, an ELISA was performed based on the detection of the light chain ((β2m) of stabilized MHC complexes. The assay was performed as generally described in Rodenko et al. (Rodenko et al., 2006).
96 well MAXISorp plates (NUNC) were coated over night with 2 ug/ml streptavidin in PBS at room temperature, washed 4× and blocked for 1 h at 37° C. in 2% BSA containing blocking buffer. Refolded HLA-A*02:01/MLA-001 monomers served as standards, covering the range of 15-500 ng/ml. Peptide-MHC monomers of the UV-exchange reaction were diluted 100 fold in blocking buffer. Samples were incubated for 1 h at 37° C., washed four times, incubated with 2 ug/ml HRP conjugated anti-β2m for 1 h at 37° C., washed again and detected with TMB solution that is stopped with […]. Absorption was measured at 450 nm. Candidate peptides that show a high exchange yield (preferably higher than 50%, most preferred higher than 75%) are generally preferred for a generation and production of antibodies or fragments thereof, and/or T cell receptors or fragments thereof, as they show sufficient avidity to the MHC molecules and prevent dissociation of the MHC complexes.
For “89 (QLAPVFQRV; listed as Homo sapiens) [compound 89]”, the Peptide exchange was “++ (20%-49% = ++)”. In the case of “119 (FIIQGLRSVGA; listed as Homo sapiens) [compound 119]”, the Peptide exchange is reported as “+++ (50%-75% = +++)”. For “79 (VTFKEYVTV; listed as Homo sapiens) [compound 79]”, the Peptide exchange was “++ (20%-49% = ++)”. In the case of “50 (ILFHGVFYA; listed as Homo sapiens) [compound 50]”, the Peptide exchange is reported as “+++ (50%-75% = +++)”. With “46 (SQFPLPLAV; listed as Homo sapiens) [compound 46]” the Peptide exchange was “++ (20%-49% = ++)”. With “110 (FLLGVSKEV; listed as Homo sapiens) [compound 110]” the Peptide exchange was “+++ (50%-75% = +++)”. In the case of “157 (TLTSLLAQA; listed as Homo sapiens) [compound 157]”, the Peptide exchange is reported as “+++ (50%-75% = +++)”. With “3 (KLEENGDLYL; listed as Homo sapiens) [compound 3]” the Peptide exchange was “++++ (≧75% = ++++)”. With “28 (SLPNGKPVSV; listed as Homo sapiens) [compound 28]” the Peptide exchange was “+++ (50%-75% = +++)”. In the case of “100 (ALLGMIIVGV; listed as Homo sapiens) [compound 100]”, the Peptide exchange is reported as “+ (<20% = +)”. For “58 (YLLPLLPAL; listed as Homo sapiens) [compound 58]”, the Peptide exchange was “+++ (50%-75% = +++)”. In the case of “85 (VLNDILVRA; listed as Homo sapiens) [compound 85]”, the Peptide exchange is reported as “+++ (50%-75% = +++)”. With “258 (LLSERFINV; listed as Homo sapiens) [compound 258]” the Peptide exchange was “++++ (≧75% = ++++)”. For “15 (YLDLSHNQL; listed as Homo sapiens) [compound 15]”, the Peptide exchange was “+++ (50%-75% = +++)”. In the case of “37 (ILAPFSVDL; listed as Homo sapiens) [compound 37]”, the Peptide exchange is reported as “+++ (50%-75% = +++)”. For “108 (ILLKNLVTI; listed as Homo sapiens) [compound 108]”, the Peptide exchange was “++ (20%-49% = ++)”. “245 (SLLDLPLSL; listed as Homo sapiens) [compound 245]” was tested, and the Peptide exchange was “++++ (≧75% = ++++)”. “99 (YLLQSVNQLLL; listed as Homo sapiens) [compound 99]” was tested, and the Peptide exchange was “++ (20%-49% = ++)”. “131 (VTSNSGILGV; listed as Homo sapiens) [compound 131]” was tested, and the Peptide exchange was “+++ (50%-75% = +++)”. For “106 (FINDSIVYL; listed as Homo sapiens) [compound 106]”, the Peptide exchange was “+++ (50%-75% = +++)”. In the case of “234 (LLSPHNPAL; listed as Homo sapiens) [compound 234]”, the Peptide exchange is reported as “+++ (50%-75% = +++)”. For “81 (NALDKVLSV; listed as Homo sapiens) [compound 81]”, the Peptide exchange was “+++ (50%-75% = +++)”. For “239 (KMNESTRSV; listed as Homo sapiens) [compound 239]”, the Peptide exchange was “++ (20%-49% = ++)”. “98 (RLFPDFFTRVAL; listed as Homo sapiens) [compound 98]” was tested, and the Peptide exchange was “++ (20%-49% = ++)”. In the case of “256 (SLGEEQFSV; listed as Homo sapiens) [compound 256]”, the Peptide exchange is reported as “++ (20%-49% = ++)”. For “253 (ALAELIDNSL; listed as Homo sapiens) [compound 253]”, the Peptide exchange was “+++ (50%-75% = +++)”. With “107 (LLVPTSGIYFV; listed as Homo sapiens) [compound 107]” the Peptide exchange was “+++ (50%-75% = +++)”. For “39 (HLLEGSVGV; listed as Homo sapiens) [compound 39]”, the Peptide exchange was “+++ (50%-75% = +++)”. With “94 (LLLPAVPVGA; listed as Homo sapiens) [compound 94]” the Peptide exchange was “+++ (50%-75% = +++)”. In the case of “123 (VLDPALPALV; listed as Homo sapiens) [compound 123]”, the Peptide exchange is reported as “++ (20%-49% = ++)”. In the case of “255 (SLLHFTENL; listed as Homo sapiens) [compound 255]”, the Peptide exchange is reported as “+++ (50%-75% = +++)”. With “109 (SLDPSVTHL; listed as Homo sapiens) [compound 109]” the Peptide exchange was “++ (20%-49% = ++)”. With “252 (RLMEICESL; listed as Homo sapiens) [compound 252]” the Peptide exchange was “+++ (50%-75% = +++)”. With “147 (YLMDDTVEI; listed as Homo sapiens) [compound 147]” the Peptide exchange was “++++ (≧75% = ++++)”. For “78 (TVVTRLDEI; listed as Homo sapiens) [compound 78]”, the Peptide exchange was “++ (20%-49% = ++)”. With “88 (AQADHLPQL; listed as Homo sapiens) [compound 88]” the Peptide exchange was “++ (20%-49% = ++)”. With “76 (AVGPVHNSV; listed as Homo sapiens) [compound 76]” the Peptide exchange was “++ (20%-49% = ++)”. For “47 (ALLERGELFV; listed as Homo sapiens) [compound 47]”, the Peptide exchange was “+++ (50%-75% = +++)”. In the case of “63 (SQIPAQPSV; listed as Homo sapiens) [compound 63]”, the Peptide exchange is reported as “++ (20%-49% = ++)”. In the case of “44 (SLFETAWEA; listed as Homo sapiens) [compound 44]”, the Peptide exchange is reported as “+++ (50%-75% = +++)”. In the case of “238 (GLYERPTAA; listed as Homo sapiens) [compound 238]”, the Peptide exchange is reported as “++ (20%-49% = ++)”. In the case of “66 (KLIFSVEAV; listed as Homo sapiens) [compound 66]”, the Peptide exchange is reported as “+++ (50%-75% = +++)”. For “114 (QLIQTLHAV; listed as Homo sapiens) [compound 114]”, the Peptide exchange was “+++ (50%-75% = +++)”. For “30 (AMIEEVFEA; listed as Homo sapiens) [compound 30]”, the Peptide exchange was “++ (20%-49% = ++)”. With “84 (ALCPRIHEV; listed as Homo sapiens) [compound 84]” the Peptide exchange was “++++ (≧75% = ++++)”. With “115 (SLDPDTLPAV; listed as Homo sapiens) [compound 115]” the Peptide exchange was “++ (20%-49% = ++)”. In the case of “24 (TLDEKVAEL; listed as Homo sapiens) [compound 24]”, the Peptide exchange is reported as “+++ (50%-75% = +++)”. For “16 (YTLDIPVLFGV; listed as Homo sapiens) [compound 16]”, the Peptide exchange was “++++ (≧75% = ++++)”. For “59 (KLLDPQEFTL; listed as Homo sapiens) [compound 59]”, the Peptide exchange was “+++ (50%-75% = +++)”. For “125 (SLADYEHFV; listed as Homo sapiens) [compound 125]”, the Peptide exchange was “++++ (≧75% = ++++)”. For “60 (ALFAPLVHL; listed as Homo sapiens) [compound 60]”, the Peptide exchange was “+++ (50%-75% = +++)”. For “120 (VTPVTVSAV; listed as Homo sapiens) [compound 120]”, the Peptide exchange was “+ (<20% = +)”. “42 (LLDSVSRL; listed as Homo sapiens) [compound 42]” was tested, and the Peptide exchange was “+ (<20% = +)”. In the case of “13 (ALMAMLVYV; listed as Homo sapiens) [compound 13]”, the Peptide exchange is reported as “++ (20%-49% = ++)”. For “10 (GIAGSLKTV; listed as Homo sapiens) [compound 10]”, the Peptide exchange was “+++ (50%-75% = +++)”. “68 (SLSNRLYYL; listed as Homo sapiens) [compound 68]” was tested, and the Peptide exchange was “+++ (50%-75% = +++)”. For “242 (WLYGEDHQI; listed as Homo sapiens) [compound 242]”, the Peptide exchange was “++ (20%-49% = ++)”. For “87 (TIYKDFVYI; listed as Homo sapiens) [compound 87]”, the Peptide exchange was “++ (20%-49% = ++)”. “148 (MLAGIAITV; listed as Homo sapiens) [compound 148]” was tested, and the Peptide exchange was “+++ (50%-75% = +++)”. In the case of “112 (SLGKFTFDV; listed as Homo sapiens) [compound 112]”, the Peptide exchange is reported as “++++ (≧75% = ++++)”. “75 (AVIKFLELL; listed as Homo sapiens) [compound 75]” was tested, and the Peptide exchange was “+++ (50%-75% = +++)”. In the case of “130 (SLLGGTFVGI; listed as Homo sapiens) [compound 130]”, the Peptide exchange is reported as “+++ (50%-75% = +++)”. In the case of “102 (VLLDIQEVFQI; listed as Homo sapiens) [compound 102]”, the Peptide exchange is reported as “+++ (50%-75% = +++)”. With “64 (SLFPDSLIV; listed as Homo sapiens) [compound 64]” the Peptide exchange was “++ (20%-49% = ++)”. In the case of “65 (SVVPDVRSV; listed as Homo sapiens) [compound 65]”, the Peptide exchange is reported as “++ (20%-49% = ++)”. “241 (KTIQQLETV; listed as Homo sapiens) [compound 241]” was tested, and the Peptide exchange was “++ (20%-49% = ++)”. For “38 (FLGPRIIGL; listed as Homo sapiens) [compound 38]”, the Peptide exchange was “+++ (50%-75% = +++)”. In the case of “21 (AIQDEIRSV; listed as Homo sapiens) [compound 21]”, the Peptide exchange is reported as “+++ (50%-75% = +++)”. “265 (NTCPYVHNI; listed as Homo sapiens) [compound 265]” was tested, and the Peptide exchange was “+++ (50%-75% = +++)”. With “142 (ILVEGISTV; listed as Homo sapiens) [compound 142]” the Peptide exchange was “+++ (50%-75% = +++)”. For “261 (QLQDRVYAL; listed as Homo sapiens) [compound 261]”, the Peptide exchange was “+++ (50%-75% = +++)”. With “57 (TVFTDHMLTV; listed as Homo sapiens) [compound 57]” the Peptide exchange was “++ (20%-49% = ++)”. “117 (KMPDVELFV; listed as Homo sapiens) [compound 117]” was tested, and the Peptide exchange was “+++ (50%-75% = +++)”.
